Source: patent US6797692B1, “Use of glutamate antagonists for the treatment of cancer” (priority 1998, dated 2004)
“Also recorded” adds a separate entry of the source.

Assays:
[1] = tested on: human neuroblastoma cell line SK-N-AS; test: Tumoricidal effect, necrotic cells by trypan blue staining; type: cell-based; conditions: Student's t test; for potentiation of tumoricidal effect (toxicity) of cisplatin: antagonist 10 μM plus cisplatin 10 μM; for potentiation of tumoricidal effect (toxicity) of thiotepa: antagonist 10 μM plus thiotepa 10 μM; for potentiation of tumoricidal effect (toxicity) of vinblastin: antagonist 10 μM plus vinblastin 1 μM
Experimental: (§1) Cell lines and culture. Human neuroblastoma (SKNAS), human rhabdomyosarcoma/medulloblastoma (TE671), human brain astrocytoma (MOGGCCM), human thyroid carcinoma (FTC238), human lung carcinoma (A549), human colon adenocarcinoma (LS180) and human breast carcinoma (T47D) were obtained from European Collection of Cell Cultures (ECACC), Center for Applied Microbiology & Research, Salisbury, UK. SKNAS, TE671, T47D, LS180 were grown in 1:1 mixture of Dulbecco's Modified Eagle's Medium (DMEM; D 6421, Sigma, Ca^2+-concentration 1.05 mM) and Nutrient Mixture F-12 Ham (Ham's F-12; Sigma) supplemented with 10% Foetal Bovine Serum (FBS) (GIBCO). FTC238 was grown in the same culture medium suplemented with 5% FBS. MOGGCCM and A549 were grown in 2:1 mixture of DMEM (D 6046, Sigma, Ca^2+-concentration 1.8 mM):Ham's F-12 supplemented with 10% FBS. Cultures were kept at 37° C. in a 95% air-5% CO2 atmosphere. As Ca^2+-free medium, minimum essential medium M8167 from Sigma was used.
Assessment of tumoricidal effect. Quantitation of cell death was performed at 24, 48 or 72 hrs after exposure to the agents of interest following staining of the cells with trypan blue. This stain is taken up by necrotic cells. The numbers of necrotic cells/100 counted cells served as quantitative measure for tumoricidal effect (% of tumor cell death). For each agent or combination of agents and each time point 5 wells were analysed. Comparisons between groups was performed by means of Student's t-test.
(§2) Exposure to agents. Tumor cells were exposed to the following agents and concentrations: MK 801 (10-500 μM), GYKI 52466 (10-500 μM), Cisplatin (10 μM), Vinblastin (1 μM), Thiotepa (10 μM) alone or in combination with MK 801 (10 μM), GYKI 52466 (10 μM) or NBQX (10 μM).
Data represent the mean±SEM of necrotic cells visualized by trypan blue staining (n=5/group). The potentiating effect of all three glutamate receptor antagonists was most prominent after an exposure time of 72 h. *P<0.05; **P<0.01; ***P<0.001, Student's t test.
Data represent the mean±SEM of necrotic cells visualized by trypan blue staining (n=5/group). The potentiating effect of the NMDA- and both AMPA antagonists is most prominent after an exposure time of 72 h. *P<0.05;**P<0.01;***P<0.001, Student's t test.
Data represent the mean±SEM of necrotic cells visualized by trypan blue staining (n=5/group). The potentiating effect of the NMDA- and both AMPA antagonists is most prominent after an exposure time of 48 hrs. *P<0.05;**P<0.01;***P<0.001, Student's t test.

[2] = tested on: human tumor cell lines (SKNAS, TE671, MOGGCCM, FTC238, A549, LS180, T47D); test: MTT assay of cell viability (antiproliferative effect); type: cell-based; conditions: 10-500 μM over 96 hrs, linear regression
Experimental: as §1
Assessment of cell viability. The yellow tetrazolium salt MTT (3-4,5-dimethylthiazol-2-2,5-diphenyltetrazolium bromid) is metabolized by viable, metabolically active cells to purple formazan crystals. Tumor cells grown in 96 well multiplates were incubated over 4 hrs with MTT solution (Cell proliferation kit I, Boehringer Mannheim, Germany). Formazan crystals were solubilized overnight, according to the manufacturer's instructions, and the product was quantified spectrophotometrically by measuring absorbance at 570 nm wave length using a VICTOR Multilabel Counter (Wallach).
as §2
Cells were exposed to either culture medium alone (control) or dizocilpine (10-500 μM) over 96 hrs and viability was measured photometrically by means of the MTT assay. Data represent mean normalized optical densities±SEM of 6-8 measurements and were analyzed by means of linear regression. Abbreviations. SKNAS: human neuroblastoma; TE671: human rhabdomyosarcoma/medulloblastoma; MOGGCCM: human brain astrocytoma; FTC238: human thyroid carcinoma; A 549: human lung carcinoma; LS180: human colon adenocarcinoma; T47D: human breast carcinoma.
Cells were exposed to either culture medium alone (control) or GYKI52466 (10-500 μM) over 96 hrs and viability was measured photometrically by means of the MTT assay. Data represent mean normalized optical densities SEM of 68 measurements and were analyzed by means of linear regression. Abbreviations. […]

SMILES | potentiation of tumoricidal effect (toxicity) of cisplatin [1] | potentiation of tumoricidal effect (toxicity) of thiotepa [1] | potentiation of tumoricidal effect (toxicity) of vinblastin [1] | antiproliferative effect in human tumor cell lines (viability, MTT assay) [2] | antiproliferative effect in human tumor cell lines (viability, MTT assay) ([2]; listed as (+)dizocilpine) | potentiation of tumoricidal effect (toxicity) of cisplatin ([1]; listed as MK801) | potentiation of tumoricidal effect (toxicity) of thiotepa ([1]; listed as MK801) | antiproliferative effect in human tumor cell lines (viability, MTT assay) ([2]; listed as GYK152466)
NS(=O)(=O)c1cccc2c1c([N+](=O)[O-])cc1nc(O)c(O)nc12 [NBQX, 2,3-dihydroxy-6-nitro-7-sulfaoylbenzo-(F)-quinoxaline] | significantly (P<0.05-0.001) potentiated; also recorded: significantly increase toxicity | significantly (P<0.05-0.001) potentiated; also recorded: potentiate toxicity | significantly (P<0.05-0.001) potentiated; also recorded: potentiate toxicity |  |  |  |  | 
C[C@]12N[C@H](Cc3ccccc31)c1ccccc12 [MK 801] | significantly (P<0.05-0.001) potentiated | significantly (P<0.05-0.001) potentiated | significantly (P<0.05-0.001) potentiated; also recorded: potentiate toxicity | significant concentration-dependent antiproliferative effect | concentration dependent antiproliferative effect | significantly increase toxicity | potentiate toxicity | 
CC1=NN=C(c2ccc(N)cc2)c2cc3c(cc2C1)OCO3 [GYKI 52466] | significantly (P<0.05-0.001) potentiated; also recorded: significantly increase toxicity | significantly (P<0.05-0.001) potentiated; also recorded: potentiate toxicity | significantly (P<0.05-0.001) potentiated; also recorded: potentiate toxicity | concentration dependent antiproliferative effect |  |  |  | significant concentration-dependent antiproliferative effect
